target: T1, Cdc7 (BEV coexpressed huCDC7/DBF4) (Homo sapiens, UniProt O00311); assay: Cdc7 enzyme inhibition assay ([33P]ATP, biotinylated peptide substrate, FlashPlate); assay type: biochemical; conditions: Table 3; enzyme inhibition data (Ki)
T1 construct: made in house; host or cells: BEV (baculovirus expression vector) co-expression; insect cells are implied but no cell line is named
Description: Cdc7 (BEV coexpressed huCDC7/DBF4) is prepared internally. Cdc7 assays are conducted as follows with final concentrations as listed. […] Reactions are quenched after 1 hr by the addition of 90 μL stop buffer (50 mM EDTA, 2M NaCl). […] (Ki) for exemplary compounds.

T1 sequence (O00311 whole entry): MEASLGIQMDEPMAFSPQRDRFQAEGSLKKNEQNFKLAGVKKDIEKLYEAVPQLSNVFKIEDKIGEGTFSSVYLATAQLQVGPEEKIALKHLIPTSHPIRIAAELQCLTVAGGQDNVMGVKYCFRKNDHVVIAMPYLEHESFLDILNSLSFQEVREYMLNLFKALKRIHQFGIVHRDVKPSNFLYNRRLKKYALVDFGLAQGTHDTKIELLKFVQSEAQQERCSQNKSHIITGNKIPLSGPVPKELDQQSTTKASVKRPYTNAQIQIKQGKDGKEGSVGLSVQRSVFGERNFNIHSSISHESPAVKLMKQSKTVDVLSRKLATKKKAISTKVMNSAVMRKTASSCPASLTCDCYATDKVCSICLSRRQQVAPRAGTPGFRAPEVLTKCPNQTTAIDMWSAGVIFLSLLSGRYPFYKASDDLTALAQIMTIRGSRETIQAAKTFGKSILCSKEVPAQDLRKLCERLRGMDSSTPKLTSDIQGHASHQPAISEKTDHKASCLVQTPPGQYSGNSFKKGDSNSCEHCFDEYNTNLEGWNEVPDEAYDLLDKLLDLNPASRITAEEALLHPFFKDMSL
T1 sequence (Q9UBU7 whole entry partner): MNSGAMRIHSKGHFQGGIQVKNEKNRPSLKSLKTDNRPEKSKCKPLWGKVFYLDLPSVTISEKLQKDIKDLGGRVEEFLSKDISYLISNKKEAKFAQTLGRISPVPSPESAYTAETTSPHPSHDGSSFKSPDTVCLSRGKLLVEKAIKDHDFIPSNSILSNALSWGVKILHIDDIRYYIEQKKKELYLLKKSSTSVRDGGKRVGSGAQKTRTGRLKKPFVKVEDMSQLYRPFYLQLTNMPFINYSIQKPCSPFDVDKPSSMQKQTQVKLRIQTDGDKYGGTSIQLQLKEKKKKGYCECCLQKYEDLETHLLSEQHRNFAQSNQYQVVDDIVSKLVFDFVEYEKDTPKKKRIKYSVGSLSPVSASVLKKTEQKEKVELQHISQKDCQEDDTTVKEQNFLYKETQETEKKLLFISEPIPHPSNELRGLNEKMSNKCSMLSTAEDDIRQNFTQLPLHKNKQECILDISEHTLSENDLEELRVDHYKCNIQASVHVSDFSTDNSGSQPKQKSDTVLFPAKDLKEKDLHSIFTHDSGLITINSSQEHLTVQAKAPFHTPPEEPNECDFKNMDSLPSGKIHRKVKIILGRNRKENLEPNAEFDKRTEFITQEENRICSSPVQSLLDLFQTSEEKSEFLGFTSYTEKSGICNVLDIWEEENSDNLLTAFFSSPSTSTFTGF

| Ki | Compound |
| --- | --- |
| < 10 nM | CNC(=O)N[C@H]1CC[C@H](Nc2cc(-c3c[nH]c4ncccc34)cc(Cl)n2)CC1 [Example 99, 1-(trans-4-{[6-chloro-4-(1H-pyrrolo[2,3-b]pyridin-3-yl)pyridin-2-yl]amino}cyclohexyl)-3-methylurea] |
| < 10 nM | CC(=O)N1CCCC(CNc2cc(-c3c[nH]c4ncccc34)cc(Cl)n2)C1 (centres unmarked) [Example 100, 1-[3-({[6-chloro-4-(1H-pyrrolo[2,3-b]pyridin-3-yl)pyridin-2-yl]amino}methyl)piperidin-1-yl]ethanone] |
| < 10 nM | O=S(=O)(C1CC1)N1CCCC(CNc2cc(-c3c[nH]c4ncccc34)cc(Cl)n2)C1 (centres unmarked) [Example 101, 6-chloro-N-{[1-(cyclopropylsulfonyl)piperidin-3-yl]methyl}-4-(1H-pyrrolo[2,3-b]pyridin-3-yl)pyridin-2-amine] |
| < 10 nM | O=C(C1CC1)N1CCCC(Nc2cc(-c3c[nH]c4ncccc34)cc(Cl)n2)C1 (centres unmarked) [Example 102, (3-{[6-chloro-4-(1H-pyrrolo[2,3-b]pyridin-3-yl)pyridin-2-yl]amino}piperidin-1-yl)(cyclopropyl)methanone] |
| < 10 nM | Clc1cc(-c2c[nH]c3ncccc23)cc(NC2CCCC(NCC3CC3)C2)n1 (centres unmarked) [Example 103, N-[6-chloro-4-(1H-pyrrolo[2,3-b]pyridin-3-yl)pyridin-2-yl]-N′-(cyclopropylmethyl)cyclohexane-1,3-diamine] |
| < 10 nM | Clc1cc(-c2c[nH]c3ncccc23)cc(NC2CCCN(C3CCC3)C2)n1 (centres unmarked) [Example 104, 6-chloro-N-(1-cyclobutylpiperidin-3-yl)-4-(1H-pyrrolo[2,3-b]pyridin-3-yl)pyridin-2-amine] |
| < 10 nM | Clc1cc(-c2c[nH]c3ncccc23)cc(N[C@H]2CC[C@H](NC3CCC3)CC2)n1 [Example 105, trans-N-[6-chloro-4-(1H-pyrrolo[2,3-b]pyridin-3-yl)pyridin-2-yl]-N′-cyclobutylcyclohexane-1,4-diamine] |
| < 10 nM | O=C(N[C@H]1CC[C@H](Nc2cc(-c3c[nH]c4ncccc34)cc(Cl)n2)CC1)[C@@H]1CCN1 [Example 106, (2S)—N-(trans-4-{[6-chloro-4-(1H-pyrrolo[2,3-b]pyridin-3-yl)pyridin-2-yl]amino}cyclohexyl)azetidine-2-carboxamide] |
| < 10 nM | O=C(Nc1cc(-c2c[nH]c3ncccc23)cc(Cl)n1)c1cccnc1 [Example 107, N-[6-chloro-4-(1H-pyrrolo[2,3-b]pyridin-3-yl)pyridin-2-yl]pyridine-3-carboxamide] |
| < 10 nM | Clc1cc(-c2c[nH]c3ncccc23)cc(N[C@H]2CC[C@H](NCC3CC3)CC2)n1 [Example 109, trans-N-[6-chloro-4-(1H-pyrrolo[2,3-b]pyridin-3-yl)pyridin-2-yl]-N′-(cyclopropylmethyl)cyclohexane-1,4-diamine] |
| < 10 nM | O=C(Nc1cc(-c2c[nH]c3ncccc23)cc(Cl)n1)C1CCNCC1 [Example 112, N-[6-chloro-4-(1H-pyrrolo[2,3-b]pyridin-3-yl)pyridin-2-yl]piperidine-4-carboxamide] |
| < 10 nM | CC(=O)NCC(C)(C)CNc1cc(-c2c[nH]c3ncccc23)cc(Cl)n1 [Example 113, N-(3-{[6-chloro-4-(1H-pyrrolo[2,3-b]pyridin-3-yl)pyridin-2-yl]amino}-2,2-dimethylpropyl)acetamide] |
| < 10 nM | CN(C)CC(=O)N[C@H]1CC[C@H](Nc2cc(-c3c[nH]c4ncccc34)cc(Cl)n2)CC1 [Example 114, N-(trans-4-{[6-chloro-4-(1H-pyrrolo[2,3-b]pyridin-3-yl)pyridin-2-yl]amino}cyclohexyl)-N^2,N^2-dimethylglycinamide] |
| < 10 nM | O=C1C[C@@H](C(=O)N[C@H]2CC[C@H](Nc3cc(-c4c[nH]c5ncccc45)cc(Cl)n3)CC2)N1 [Example 115, (2S)—N-(trans-4-{[6-chloro-4-(1H-pyrrolo[2,3-b]pyridin-3-yl)pyridin-2-yl]-amino}cyclohexyl)-4-oxo azetidine-2-carboxamide] |
| < 10 nM | CN[C@@H](C)C(=O)N[C@H]1CC[C@H](Nc2cc(-c3c[nH]c4ncccc34)cc(Cl)n2)CC1 [Example 116, N-(trans-4-{[6-chloro-4-(1H-pyrrolo[2,3-b]pyridin-3-yl)pyridin-2-yl]amino}cyclohexyl)-N^2-methyl-L-alaninamide] |
| < 10 nM | O=C(C1CCN1)N1CCC(Nc2cc(-c3c[nH]c4ncccc34)cc(Cl)n2)CC1 (centres unmarked) [Example 117, Azetidin-2-yl(4-{[6-chloro-4-(1H-pyrrolo[2,3-b]pyridin-3-yl)pyridin-2-yl]amino}piperidin-1-yl)methanone] |
| < 10 nM | CN(C)CC(=O)NC1CCCC(Nc2cc(-c3c[nH]c4ncccc34)cc(Cl)n2)C1 (centres unmarked) [Example 118, N-(3-{[6-chloro-4-(1H-pyrrolo[2,3-b]pyridin-3-yl)pyridin-2-yl]amino}cyclohexyl)-N^2,N^2-dimethylglycinamide] |
| < 10 nM | CN1CCC[C@H]1C(=O)NC1CCCC(Nc2cc(-c3c[nH]c4ncccc34)cc(Cl)n2)C1 (stereo partly drawn) [Example 119, N-(3-{[6-chloro-4-(1H-pyrrolo[2,3-b]pyridin-3-yl)pyridin-2-yl]amino}cyclohexyl)-1-methyl-L-prolinamide] |
| < 10 nM | CN(C)CC(C)(C)CNc1cc(-c2c[nH]c3ncccc23)cc(Cl)n1 [Example 121, N′-[6-chloro-4-(1H-pyrrolo[2,3-b]pyridin-3-yl)pyridin-2-yl]-N,N,2,2-tetramethylpropane-1,3-diamine] |
| < 10 nM | CS(=O)(=O)Nc1cc(-c2c[nH]c3ncccc23)cc(Cl)n1 [Example 122, N-[6-chloro-4-(1H-pyrrolo[2,3-b]pyridin-3-yl)pyridin-2-yl]methanesulfonamide] |
| < 10 nM | O=S(=O)(Nc1cc(-c2c[nH]c3ncccc23)cc(Cl)n1)c1ccccc1 [Example 123, N-[6-chloro-4-(1H-pyrrolo[2,3-b]pyridin-3-yl)pyridin-2-yl]benzenesulfonamide] |
| < 10 nM | CC(C)(CNC(=O)C1CC1)CNc1cc(-c2c[nH]c3ncccc23)cc(Cl)n1 [Example 124, N-(3-{[6-chloro-4-(1H-pyrrolo[2,3-b]pyridin-3-yl)pyridin-2-yl]amino}-2,2-dimethylpropyl)cyclopropanecarboxamide] |
| < 10 nM | O=C(C1CC1)N1CCC(Nc2cc(-c3c[nH]c4ncccc34)cc(Cl)n2)CC1 [Example 126, (4-{[6-chloro-4-(1H-pyrrolo[2,3-b]pyridin-3-yl)pyridin-2-yl]amino}piperidin-1-yl)(cyclopropyl)methanone] |
| < 10 nM | C[C@@H](C(=O)N[C@H]1CC[C@H](Nc2cc(-c3c[nH]c4ncccc34)cc(Cl)n2)CC1)N(C)C [Example 127, N-(trans-4-{[6-chloro-4-(1H-pyrrolo[2,3-b]pyridin-3-yl)pyridin-2-yl]amino}cyclohexyl)-N^2,N^2-dimethyl-L-alaninamide] |
| < 10 nM | Clc1cc(-c2c[nH]c3ncccc23)cc(NC2CCN(C3CCC3)CC2)n1 [Example 128, 6-chloro-N-(1-cyclobutylpiperidin-4-yl)-4-(1H-pyrrolo[2,3-b]pyridin-3-yl)pyridin-2-amine] |
| < 10 nM | O=C(NC1CCCC(Nc2cc(-c3c[nH]c4ncccc34)cc(Cl)n2)C1)C1CCCCN1 (centres unmarked) [Example 129, N-(3-{[6-chloro-4-(1H-pyrrolo[2,3-b]pyridin-3-yl)pyridin-2-yl]amino}cyclohexyl)piperidine-2-carboxamide] |

Reference: patent US8435980B2 (AbbVie Inc., priority 2009, dated 2013)
